Results published in ChEMBL document CHEMBL3813655 (ACS Med Chem Lett, 2016).
Active and inactive are the calls of the source. The rule behind the calls is not given here.

What was measured:
Serum = test: Protein binding in 10% human serum at 100 uM after 3 days; type: ADME; settings: 72 h
[1] = molecular target: Receptor-type tyrosine-protein kinase FLT3 (Homo sapiens, UniProt P36888, D835Y)
U-937 = test: Antiproliferative activity against human U937 cells assessed as cell viability by cell titer glo assay; type: functional, cell-based
[2] = molecular target: Receptor-type tyrosine-protein kinase FLT3 (Homo sapiens, UniProt P36888, ITD)
[3] = test system: Receptor-type tyrosine-protein kinase FLT3 (Homo sapiens), P36888 [D835V]; settings: 1 uM
Description: Inhibition of FLT3 D835V mutant (unknown origin) at 1 uM by kinomescan analysis

PF-382 = test: Antiproliferative activity against human PF382 cells assessed as cell viability by cell titer glo assay; type: functional, cell-based
[4] = molecular target: Rho-associated protein kinase 2 (Homo sapiens, UniProt O75116); test: Inhibition of ROCK2 (unknown origin) by kinomescan analysis
Rho-associated protein kinase 2, sequence (O75116 whole entry): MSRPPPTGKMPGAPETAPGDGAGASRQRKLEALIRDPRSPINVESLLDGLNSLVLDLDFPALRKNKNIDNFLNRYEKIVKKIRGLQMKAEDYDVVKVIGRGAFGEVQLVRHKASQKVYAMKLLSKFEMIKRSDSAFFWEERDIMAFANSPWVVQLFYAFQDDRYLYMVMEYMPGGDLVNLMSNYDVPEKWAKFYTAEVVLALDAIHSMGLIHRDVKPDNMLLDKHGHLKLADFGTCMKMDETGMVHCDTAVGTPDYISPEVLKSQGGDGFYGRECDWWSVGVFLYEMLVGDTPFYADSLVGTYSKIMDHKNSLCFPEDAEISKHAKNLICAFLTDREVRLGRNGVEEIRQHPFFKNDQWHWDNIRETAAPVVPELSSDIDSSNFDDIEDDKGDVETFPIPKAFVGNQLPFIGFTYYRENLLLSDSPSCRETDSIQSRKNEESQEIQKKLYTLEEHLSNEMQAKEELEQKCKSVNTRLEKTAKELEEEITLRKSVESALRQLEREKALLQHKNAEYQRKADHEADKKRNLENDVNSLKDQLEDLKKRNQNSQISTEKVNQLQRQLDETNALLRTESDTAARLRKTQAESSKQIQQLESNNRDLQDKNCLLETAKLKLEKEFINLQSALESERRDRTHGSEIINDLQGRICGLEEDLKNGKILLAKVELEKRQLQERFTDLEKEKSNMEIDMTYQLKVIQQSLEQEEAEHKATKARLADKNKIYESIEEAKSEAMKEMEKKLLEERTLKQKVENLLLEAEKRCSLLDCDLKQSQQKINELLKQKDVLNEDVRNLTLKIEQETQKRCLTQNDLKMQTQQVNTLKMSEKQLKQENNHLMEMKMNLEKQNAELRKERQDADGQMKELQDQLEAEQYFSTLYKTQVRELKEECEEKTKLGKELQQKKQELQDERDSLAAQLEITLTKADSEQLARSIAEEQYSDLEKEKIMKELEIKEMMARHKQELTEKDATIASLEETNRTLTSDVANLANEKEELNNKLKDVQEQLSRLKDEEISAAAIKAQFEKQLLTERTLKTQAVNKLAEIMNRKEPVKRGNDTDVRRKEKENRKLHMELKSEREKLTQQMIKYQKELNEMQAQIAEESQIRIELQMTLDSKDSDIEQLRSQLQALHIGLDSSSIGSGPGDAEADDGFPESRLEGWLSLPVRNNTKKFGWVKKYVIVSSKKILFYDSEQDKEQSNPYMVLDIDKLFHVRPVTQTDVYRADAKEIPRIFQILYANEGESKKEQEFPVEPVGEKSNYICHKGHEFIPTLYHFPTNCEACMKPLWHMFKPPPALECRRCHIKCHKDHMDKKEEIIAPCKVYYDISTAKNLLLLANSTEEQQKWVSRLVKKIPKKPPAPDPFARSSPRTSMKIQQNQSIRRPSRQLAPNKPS

[5] = molecular target: Receptor-type tyrosine-protein kinase FLT3 (Homo sapiens) (UniProt P36888); settings: 1 uM
Description: Inhibition of wild type FLT3 (unknown origin) at 1 uM by kinomescan analysis

K052 = test: Antiproliferative activity against human K052 cells assessed as cell viability by cell titer glo assay; type: functional, cell-based
Homo sapiens = species on record: Homo sapiens; test: Antiproliferative activity against human P31 cells assessed as cell viability by cell titer glo assay; type: functional, cell-based
MOLM-13 = test: Antiproliferative activity against pMMP-LucNeo fused human MOLM13 cells assessed as cell viability after 3 days by cell titer glo assay; type: functional, cell-based
[6] = Cell cycle arrest in […]-ITD mutant expressing mouse BA/F3 cells assessed accumulation at G1 phase up to 100 nM after 48 hrs by propidium iodide staining based FACS analysis; type: functional; settings: BaF3
NALM-6 = test: Antiproliferative activity against human NALM6 cells assessed as cell viability by cell titer glo assay; type: functional, cell-based
[7] = Antiproliferative activity against human patient-derived FLT3 ITD mutant expressing AML cells primagrafted in mouse spleen after 3 days; type: functional, cell-based; settings: 72 h
Plasma = test: Stability in mouse plasma after 6 hrs; type: ADME, cell-free
BaF3 [8] = test: Induction of apoptosis in […]-ITD mutant expressing mouse BA/F3 cells up to 1000 nM after 48 hrs by Annexin V-fluos assay; type: functional, cell-based
[9] = test system: Receptor-type tyrosine-protein kinase FLT3 (Homo sapiens), P36888 [UNDEFINED MUTATION]; settings: 1 uM
[10] = Half life in mouse microsomes; type: ADME, Microsome
K562 = test: Antiproliferative activity against human K562 cells assessed as cell viability by cell titer glo assay; type: functional, cell-based
NOMO-1 = test: Antiproliferative activity against human NOMO1 cells assessed as cell viability by cell titer glo assay; type: functional, cell-based
[11] = molecular target: Phosphorylase b kinase gamma catalytic chain, skeletal muscle/heart isoform (Homo sapiens, UniProt Q16816); test: Inhibition of PHKGI (unknown origin) by kinomescan analysis
Phosphorylase b kinase gamma catalytic chain, skeletal muscle/heart isoform, sequence (Q16816 whole entry, canonical isoform): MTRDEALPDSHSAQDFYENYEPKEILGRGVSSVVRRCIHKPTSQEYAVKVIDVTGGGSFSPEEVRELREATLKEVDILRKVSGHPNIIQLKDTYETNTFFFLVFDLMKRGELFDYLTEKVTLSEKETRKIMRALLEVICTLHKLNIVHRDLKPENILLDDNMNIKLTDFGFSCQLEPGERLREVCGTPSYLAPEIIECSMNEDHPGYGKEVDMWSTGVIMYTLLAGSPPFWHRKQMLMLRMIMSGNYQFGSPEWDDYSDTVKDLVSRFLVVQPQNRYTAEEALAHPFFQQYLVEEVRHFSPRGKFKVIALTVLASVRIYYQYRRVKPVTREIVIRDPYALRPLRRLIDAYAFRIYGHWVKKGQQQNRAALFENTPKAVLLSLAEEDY

THP-1 = test: Antiproliferative activity against human THP1 cells assessed as cell viability by cell titer glo assay; type: functional, cell-based
[12] = molecular target: Dual specificity protein kinase CLK4 (Homo sapiens, UniProt Q9HAZ1); test: Inhibition of CLK4 (unknown origin) by kinomescan analysis
Dual specificity protein kinase CLK4, sequence (Q9HAZ1 whole entry): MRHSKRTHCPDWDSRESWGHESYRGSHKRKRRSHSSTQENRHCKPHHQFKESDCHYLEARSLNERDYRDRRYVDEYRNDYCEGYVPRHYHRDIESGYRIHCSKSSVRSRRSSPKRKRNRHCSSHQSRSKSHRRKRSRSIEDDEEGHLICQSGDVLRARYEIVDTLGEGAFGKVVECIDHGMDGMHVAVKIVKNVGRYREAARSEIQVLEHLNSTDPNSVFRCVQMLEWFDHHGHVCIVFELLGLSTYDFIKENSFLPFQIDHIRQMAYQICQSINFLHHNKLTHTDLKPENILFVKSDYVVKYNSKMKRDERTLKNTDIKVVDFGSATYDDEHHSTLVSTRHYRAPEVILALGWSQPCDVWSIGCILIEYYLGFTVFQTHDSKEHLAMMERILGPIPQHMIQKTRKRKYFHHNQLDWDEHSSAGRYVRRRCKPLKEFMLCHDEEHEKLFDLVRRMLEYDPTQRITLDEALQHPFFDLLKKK

[13] = test system: Receptor-type tyrosine-protein kinase FLT3 (Homo sapiens), P36888 [N841I]; settings: 1 uM
Description: Inhibition of FLT3 N841I mutant (unknown origin) at 1 uM by kinomescan analysis

BaF3 [14] = test: Induction of apoptosis in […]-D835Y mutant expressing mouse BA/F3 cells up to 1000 nM after 48 hrs by Annexin V-fluos assay; type: functional, cell-based
NB-4 = test: Antiproliferative activity against pMMP-LucNeo fused human NB4 cells assessed as cell viability by cell titer glo assay; type: functional, cell-based
HEL = test: Antiproliferative activity against human HEL cells assessed as cell viability by cell titer glo assay; type: functional, cell-based
[15] = test system: Receptor-type tyrosine-protein kinase FLT3 (Homo sapiens), P36888 [R834Q]; settings: 1 uM
Description: Inhibition of FLT3 R834Q double mutant (unknown origin) at 1 uM by kinomescan analysis

[16] = test system: Receptor-type tyrosine-protein kinase FLT3 (Homo sapiens), P36888 [UNDEFINED MUTATION]; settings: 1 uM; remark: listed apart in the source
[17] = Antiproliferative activity against human patient-derived FLT3 D835Y mutant expressing AML cells primagrafted in mouse spleen after 3 days; type: functional, cell-based; settings: 72 h
[18] = Cell cycle arrest in […]-D835Y mutant expressing mouse BA/F3 cells assessed accumulation at G1 phase up to 100 nM after 48 hrs by propidium iodide staining based FACS analysis; type: functional; settings: BaF3
MOLM-14 = test: Antiproliferative activity against human MOLM14 cells assessed as cell viability after 3 days by cell titer glo assay; type: functional, cell-based
[19] = molecular target: Dual specificity protein kinase CLK1 (Homo sapiens) (UniProt P49759); test: Inhibition of CLK1 (unknown origin) at 1 uM by kinomescan analysis
Dual specificity protein kinase CLK1 (Homo sapiens), sequence (P49759 whole entry, looked up): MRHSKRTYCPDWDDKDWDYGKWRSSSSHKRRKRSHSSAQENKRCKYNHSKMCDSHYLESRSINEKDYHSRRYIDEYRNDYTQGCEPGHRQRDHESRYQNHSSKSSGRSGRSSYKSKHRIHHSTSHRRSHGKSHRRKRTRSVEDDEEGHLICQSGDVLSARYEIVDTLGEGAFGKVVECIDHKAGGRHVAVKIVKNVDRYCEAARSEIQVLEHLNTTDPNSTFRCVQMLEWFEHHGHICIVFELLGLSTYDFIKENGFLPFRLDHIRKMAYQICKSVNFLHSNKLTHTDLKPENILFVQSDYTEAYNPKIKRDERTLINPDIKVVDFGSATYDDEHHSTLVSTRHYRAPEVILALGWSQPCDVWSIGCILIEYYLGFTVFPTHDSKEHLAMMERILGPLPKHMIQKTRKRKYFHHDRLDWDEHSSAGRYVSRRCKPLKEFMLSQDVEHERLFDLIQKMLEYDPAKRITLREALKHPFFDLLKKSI

[20] = test system: Receptor-type tyrosine-protein kinase FLT3 (Homo sapiens), P36888 [UNDEFINED MUTATION]; settings: 1 uM; remark: listed apart in the source

PB (Serum): Active
IC50 [1]: 4 nM
IC50 [2]: 10 nM
inhibition [3]: > 95%
IC50 [4]: 936 nM
inhibition [5]: > 95%
Stability (Plasma): Stable
inhibition [9]: > 95%
half-life [10]: 15 min
IC50 [11]: 78 nM
IC50 [12]: 142 nM
inhibition [13]: > 95%
inhibition [15]: > 95%
inhibition [16]: > 95%
inhibition [19]: Active
inhibition [20]: > 95%
SMILES: CN(C)CCCn1cc(-c2ccc3c(c2)-c2[nH]c4cc(-c5cn[nH]c5)ccc4c2C3=O)cn1
Activity (U-937): inactive
Activity (PF-382): inactive
Activity (K052): inactive
Activity (Homo sapiens): inactive
Activity (MOLM-13): Active
Activity [6]: Active
Activity (NALM-6): inactive
IC50 [7]: 70 nM
Activity (BaF3 [8]): Active
Activity (K562): inactive
Activity (NOMO-1): inactive
Activity (THP-1): inactive
Activity (BaF3 [14]): Active
Activity (NB-4): inactive
Activity (HEL): inactive
IC50 [17]: 70 nM
Activity [18]: inactive
Activity (MOLM-14): Active
